What was measured:
Assay type in all cases: in vivo
rice (Or) = assay: Test Example 4: selectivity for a crop plant by flooded paddy field treatment; parameters: scale not given here; settings: rice transplanted at second leaf stage; for Or (effect on crop plant rice, index): dose 25 g active ingredient per 10 ares, examined on the 21st day after treatment; for Or (herbicidal effect index on crop): dose 25 gai/10a, 21st day after treatment, index per Table 44
Outline: (§1)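 Paddy soil in pots was puddled, weed seeds were sown, second-leaf-stage rice was transplanted, and the pots were flooded to 3 cm. The next day a water-diluted wettable powder was dropped onto the water surface at 25 g active ingredient per 10 ares. Herbicidal effect was scored on a rating scale 21 days after treatment in a greenhouse.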

monochoria (Mo) [1] = assay: as above; parameters: scale not given here; settings: for Mo (herbicidal effects, index): dose 25 g active ingredient per 10 ares, examined on the 21st day after treatment; for Mo (herbicidal effect index): monochoria, dose 25 gai/10a, 21st day after treatment, index per Table 44
Outline: as §1

barnyard grass (Eo) [2] = assay: as above; parameters: scale not given here; settings: for Eo (herbicidal effects, index): dose 25 g active ingredient per 10 ares, examined on the 21st day after treatment; for Eo (herbicidal effect index): barnyard grass, dose 25 gai/10a, 21st day after treatment, index per Table 44
Outline: as §1

monochoria (Mo) [3] = assay: Test Example 1: herbicidal effects by flooded paddy field treatment; parameters: herbicidal effects, Mo (monochoria):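 0-5 growth inhibition grade; 5 = over 90%; 4 = 70-90%; 3 = 50-70%; 2 = 30-50%; 1 = 10-30%; 0 = under 10%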; settings: for Herbicidal effect index, Mo: dose 100 gai/10a, examined on 21st day after treatment, index 0-5 per Table 44; for herbicidal effects, Mo (monochoria): dose 100 g active ingredient per 10 ares, examined on the 21st day after treatment, standards of Table 44;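 for Herbicidal effect index, Mo: 0-5 growth inhibition grade; 5 = over 90%; 4 = 70-90%; 3 = 50-70%; 2 = 30-50%; 1 = 10-30%; 0 = under 10%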
Outline: (§2)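 Seeds were sown in puddled paddy soil in pots and flooded to 3 cm. The next day a water-diluted wettable powder was dripped onto the water surface at 100 g active ingredient per 10 ares. Plants grew in a greenhouse, and herbicidal effect was scored on a rating scale 21 days after treatment.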

barnyard grass (Eo) [4] = assay: as above; parameters: herbicidal effects, Eo (barnyard grass):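 0-5 growth inhibition grade; 5 = over 90%; 4 = 70-90%; 3 = 50-70%; 2 = 30-50%; 1 = 10-30%; 0 = under 10%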; settings: for Herbicidal effect index, Eo: dose 100 gai/10a, examined on 21st day after treatment, index 0-5 per Table 44; for herbicidal effects, Eo (barnyard grass): dose 100 g active ingredient per 10 ares, examined on the 21st day after treatment, standards of Table 44
Outline: as §2

barnyard grass (Ec) = assay: Test Example 2: herbicidal effects by upland soil treatment; parameters: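 0-5 growth inhibition grade; 5 = over 90%; 4 = 70-90%; 3 = 50-70%; 2 = 30-50%; 1 = 10-30%; 0 = under 10%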; settings: dose 100 g active ingredient per 10 ares, examined on the 21st day after treatment, standards of Table 44
Outline: (§3)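 Pre-emergence test: barnyard grass and green foxtail sown in upland soil, then soil surface sprayed with wettable-powder formulation at 100 g active ingredient per 10 ares (100 l per 10 ares). Grown in greenhouse; herbicidal effect scored on a rating scale 21 days after treatment.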

green foxtail (Se) = assay: as above; settings: dose 100 g active ingredient per 10 ares, examined on the 21st day after treatment, standards of Table 44;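 note: 0-5 growth inhibition grade; 5 = over 90%; 4 = 70-90%; 3 = 50-70%; 2 = 30-50%; 1 = 10-30%; 0 = under 10%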
Outline: as §3
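Throughout, for Herbicidal effect index, Eo: 0-5 growth inhibition grade; 5 = over 90%; 4 = 70-90%; 3 = 50-70%; 2 = 30-50%; 1 = 10-30%; 0 = under 10%.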

| SMILES | Or (effect on crop plant rice, index) (rice (Or)) | Mo (herbicidal effects, index) (monochoria (Mo) [1]) | Eo (herbicidal effects, index) (barnyard grass (Eo) [2]) | Herbicidal effect index, Mo (monochoria (Mo) [3]) | Herbicidal effect index, Eo (barnyard grass (Eo) [4]) | herbicidal effects, Ec (barnyard grass) (barnyard grass (Ec)) | herbicidal effects, Se (green foxtail) (green foxtail (Se)) | Or (herbicidal effect index on crop) (rice (Or)) | Mo (herbicidal effect index) (monochoria (Mo) [1]) | Eo (herbicidal effect index) (barnyard grass (Eo) [2]) | herbicidal effects, Mo (monochoria) (monochoria (Mo) [3]) | herbicidal effects, Eo (barnyard grass) (barnyard grass (Eo) [4]) |
| --- | --- | --- | --- | --- | --- | --- | --- | --- | --- | --- | --- | --- |
| CN(C(=O)Cc1ccccc1)C(c1cncnc1C(F)(F)F)C1CC1 (racemic) [Compound 1-34] | 1 | 5 | 5 | 5 | 5 | 5 | 5 |  |  |  |  |  |
| Cc1ccc(CC(=O)N(C)C(c2cncnc2C)C(C)(C)C)cc1 (racemic) [Compound 1-162] |  |  |  |  |  | 5 | 4 | 0 | 5 | 5 | 5 | 5 |
| CC(c1cncnc1C(C)(C)C)N(C)C(=O)Cc1ccc(Cl)cc1 (racemic) [1-190] |  |  |  |  |  | 4 | 4 | 0 | 5 | 5 | 5 | 5 |
| CCN(C(=O)Cc1ccccc1)C(c1cncnc1C(F)F)C(C)C (racemic) [Compound 1-168] |  |  |  |  |  | 5 | 5 | 1 | 5 | 5 | 5 | 5 |
| CC(C)C(c1cncnc1C(F)(F)F)N(C)C(=O)Cc1ccc(F)cc1F (racemic) [Compound 1-147] |  |  |  |  |  | 5 | 5 | 1 | 5 | 5 | 5 | 5 |
| COCN(C(=O)Cc1ccc(C)cc1)C(c1cncnc1C(F)(F)F)C(C)C (racemic) [Compound 1-106] |  |  |  | 5 | 5 | 5 | 4 | 0 | 5 | 5 |  |  |
| CC(C)C(c1cncnc1C(F)(F)F)N(C)C(=O)Cc1ccccc1Cl (racemic) [Compound 1-20] | 1 | 5 | 5 | 5 | 5 | 5 | 5 |  |  |  |  |  |
| CC(C)C(c1cncnc1C(F)(F)F)N(C)C(=O)Cc1ccc(Cl)c(F)c1 (racemic) [1-180] |  |  |  |  |  | 5 | 5 | 1 | 5 | 5 | 5 | 5 |
| CCCN(C(=O)Cc1ccc(C)cc1)C(c1cncnc1C(F)(F)F)C(C)C (racemic) [Compound 1-62] | 1 | 5 | 5 | 5 | 5 | 4 | 4 |  |  |  |  |  |
| CC(C)C(c1cncnc1C(F)(F)F)N(C)C(=O)Cc1c(F)cccc1F (racemic) [Compound 1-123] |  |  |  | 5 | 5 | 5 | 5 | 1 | 5 | 5 |  |  |
| CC(C)C(c1cncnc1C(F)(F)F)N(C)C(=O)Cc1ccc(Cl)cc1Cl (racemic) [Compound 1-124] |  |  |  | 5 | 5 | 5 | 5 | 0 | 5 | 5 |  |  |
| CC(C)C(c1cncnc1C(F)(F)F)N(C)C(=O)OCc1ccccc1 (racemic) [Compound 1-118] |  |  |  | 5 | 5 | 5 | 5 | 0 | 3 | 5 |  |  |
| CN(C(=O)Cc1ccc(Cl)cc1)C(c1ccc(F)cc1)c1cncnc1C(F)(F)F (racemic) [1-219] |  |  |  |  |  | 5 | 5 | 1 | 5 | 5 | 5 | 5 |
| CC(C)C(c1cncnc1C(F)(F)F)N(C)C(=O)CSc1ccccc1 (racemic) [1-182] |  |  |  |  |  | 5 | 5 | 1 | 5 | 5 | 5 | 5 |
| CCCN(C(=O)Cc1ccc(F)cc1)C(c1cncnc1C(F)(F)F)C(C)C (racemic) [1-181] |  |  |  |  |  | 5 | 5 | 1 | 5 | 5 | 5 | 5 |
| Cc1ccc(C(c2cncnc2C(F)(F)F)N(C)C(=O)Cc2ccccc2)cc1 (racemic) [1-225] |  |  |  |  |  | 5 | 5 | 0 | 5 | 5 | 5 | 5 |
